Reference: article PMC8050276, “Estradiol analogs attenuate autophagy, cell migration and invasion by direct and selective inhibition of TRPML1, independent of estrogen receptors” (Scientific Reports, 2021)
Values joined by “and” are separate entries in the source; they are usually repeats but may differ in a detail not shown here. Equal entries are not always repeated. Where two headings read alike, the source gives them in different places.

Tests used:
[1] = tested on: hTRPML1∆NC-YFP; format: cell-based, human; conditions: for primary screen result: 20 µM compound, 5 µM ML-SA1, TRPML1 and TRPML3; for TRPML1:TRPML2 fold selectivity / TRPML1:TRPML3 fold selectivity: ratio of Fluo-4 IC50 values; for TRPML1 versus TRPML3 selectivity: Fluo-4, TRPML1 vs TRPML3, 5 µM ML-SA1
Protocol: (§1) To identify inhibitors of TRPML1 and TRPML3, the Spectrum Collection compound library (MS Discoveries; 2000 compounds) and additional 430 bioactive compounds were screened. To this end, fluorometric Ca^2+ influx assays were performed by using the calcium dye Fluo-4/AM (Invitrogen, Thermo Fisher Scientific, Waltham, MA, USA) and a custom-made fluorescence imaging plate reader built into a robotic liquid handling station (Freedom Evo 150, Tecan, Männedorf, Switzerland). […] Screening compounds dissolved in DMSO (10 mM) were prediluted in 150 mM NaCl, 20 mM HEPES, pH 7.4, to a concentration of 200 µM. For primary screens, HEK293 stably expressing plasma membrane-targeted TRPML1 or TRPML3 were trypsinized and resuspended in cell culture medium supplemented with 4 µM Fluo-4/AM. After incubation at 37 °C for 30 min, the cell suspension was briefly centrifuged resuspended in HBS, and dispensed into black pigmented, clear-bottom 384-well microwell plates (Greiner μClear, Frickenhausen, Germany). Plates were placed into the FLIPR and fluorescence signals (excitation 470 nm, emission 515 nm) were recorded with a Zyla 5.5 camera (Andor, Belfast, UK) and the μManager software like previously described. In a first video, compound libraries were successively added to the cells with the Tecan 96-tip multichannel arm to a final concentration of 20 µM to map unspecific effects like autofluorescence or toxicity. In a second step the agonist ML-SA1 was pipetted in each well and fluorescence signals were recorded for 10 min. Analyses were done by calculating fluorescence intensities for each well and background areas with ImageJ (National Institutes of Health, Bethesda, MD, USA). Finally, the background was subtracted and the fluorescence intensities were normalized to initial intensities (F/F0). Concentration response curves were generated by the same procedure but compounds were manually prediluted in 96-well plates containing HBS, now supplemented with 0.1% bovine serum albumin. Here data was fitted to a four-parameter Hill equation to obtain Imin, Imax, IC50), and the Hill coefficient n.

[2] = target: T1, hTRPML3-YFP (Homo sapiens, UniProt Q8TDD5); assay: Fluo-4 Ca2+ influx assay, HEK293 stably expressing hTRPML3-YFP, activated with ML-SA1; format: cell-based; conditions: for inhibitory effect on TRPML3: 12.5 µM compound, 5 µM ML-SA1, Fig. 1f; for IC50: Fluo-4, 5 µM ML-SA1, Table S1, read-out: TRPML3 IC50
T1 construct: expressed in transfected cells
T1 sequence (Q8TDD5 whole entry): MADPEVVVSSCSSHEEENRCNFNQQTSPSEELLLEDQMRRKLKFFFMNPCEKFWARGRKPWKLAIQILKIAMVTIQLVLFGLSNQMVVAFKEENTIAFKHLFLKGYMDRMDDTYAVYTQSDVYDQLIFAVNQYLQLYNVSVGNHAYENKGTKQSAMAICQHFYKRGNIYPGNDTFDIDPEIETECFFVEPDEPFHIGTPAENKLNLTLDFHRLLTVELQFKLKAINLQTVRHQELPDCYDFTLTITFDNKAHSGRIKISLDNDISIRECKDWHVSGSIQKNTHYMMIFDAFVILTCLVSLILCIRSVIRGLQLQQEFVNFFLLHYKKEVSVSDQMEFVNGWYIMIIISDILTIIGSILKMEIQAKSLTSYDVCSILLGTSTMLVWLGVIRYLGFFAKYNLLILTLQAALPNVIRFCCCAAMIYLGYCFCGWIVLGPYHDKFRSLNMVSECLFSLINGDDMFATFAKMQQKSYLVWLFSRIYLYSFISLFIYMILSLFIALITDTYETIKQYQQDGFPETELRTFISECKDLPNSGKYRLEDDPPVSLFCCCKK
Protocol: To identify inhibitors of TRPML1 and TRPML3, the Spectrum Collection compound library (MS Discoveries; 2000 compounds) and additional 430 bioactive compounds were screened. To this end, fluorometric Ca^2+ influx assays were performed by using the calcium dye Fluo-4/AM (Invitrogen, Thermo Fisher Scientific, Waltham, MA, USA) and a custom-made fluorescence imaging plate reader built into a robotic liquid handling station (Freedom Evo 150, Tecan, Männedorf, Switzerland). All measurements were done in a HEPES buffered solution (HBS), containing 132 mM NaCl, 6 mM KCl, 1 mM MgCl2, 1 mM CaCl2, 5.5 mM D-glucose, 10 mM HEPES, pH 7.4. Screening compounds dissolved in DMSO (10 mM) were prediluted in 150 mM NaCl, 20 mM HEPES, pH 7.4, to a concentration of 200 µM. For primary screens, HEK293 stably expressing plasma membrane-targeted TRPML1 or TRPML3 were trypsinized and resuspended in cell culture medium supplemented with 4 µM Fluo-4/AM. After incubation at 37 °C for 30 min, the cell suspension was briefly centrifuged resuspended in HBS, and dispensed into black pigmented, clear-bottom 384-well microwell plates (Greiner μClear, Frickenhausen, Germany). Plates were placed into the FLIPR and fluorescence signals (excitation 470 nm, emission 515 nm) were recorded with a Zyla 5.5 camera (Andor, Belfast, UK) and the μManager software like previously described. In a first video, compound libraries were successively added to the cells with the Tecan 96-tip multichannel arm to a final concentration of 20 µM to map unspecific effects like autofluorescence or toxicity. In a second step the agonist ML-SA1 was pipetted in each well and fluorescence signals were recorded for 10 min. Analyses were done by calculating fluorescence intensities for each well and background areas with ImageJ (National Institutes of Health, Bethesda, MD, USA). Finally, the background was subtracted and the fluorescence intensities were normalized to initial intensities (F/F0). Concentration response curves were generated by the same procedure but compounds were manually prediluted in 96-well plates containing HBS, now supplemented with 0.1% bovine serum albumin. Here data was fitted to a four-parameter Hill equation to obtain Imin, Imax, IC50), and the Hill coefficient n.

[3] = target: hTRPML1∆NC-YFP (Homo sapiens, UniProt Q9GZU1); format: cell-based; conditions: for inhibitory effect on TRPML1: 12.5 µM compound, 5 µM ML-SA1, Fig. 1f; for TRPML1-inhibitory activity, SAR summary: random screening or consecutive experiments
hTRPML1∆NC-YFP (Homo sapiens, UniProt Q9GZU1), sequence (Q9GZU1 whole entry): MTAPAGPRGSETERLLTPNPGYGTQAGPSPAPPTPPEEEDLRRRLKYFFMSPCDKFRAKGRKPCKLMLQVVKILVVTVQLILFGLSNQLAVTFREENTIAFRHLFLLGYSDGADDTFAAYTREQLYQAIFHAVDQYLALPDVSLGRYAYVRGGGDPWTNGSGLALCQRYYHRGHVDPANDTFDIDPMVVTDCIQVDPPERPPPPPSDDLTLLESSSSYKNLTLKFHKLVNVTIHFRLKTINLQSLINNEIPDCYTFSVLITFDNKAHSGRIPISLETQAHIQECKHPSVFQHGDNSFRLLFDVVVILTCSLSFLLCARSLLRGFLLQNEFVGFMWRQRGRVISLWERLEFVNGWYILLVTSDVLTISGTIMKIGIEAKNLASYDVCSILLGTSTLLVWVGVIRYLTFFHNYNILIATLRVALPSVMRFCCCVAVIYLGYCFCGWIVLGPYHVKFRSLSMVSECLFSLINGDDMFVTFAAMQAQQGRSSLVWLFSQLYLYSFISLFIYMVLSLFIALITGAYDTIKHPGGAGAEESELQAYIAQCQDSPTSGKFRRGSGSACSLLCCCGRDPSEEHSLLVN
Protocol: as §1

[4] = target: T2, hTRPML2-YFP (Homo sapiens, UniProt Q8IZK6); assay: Fluo-4 Ca2+ influx assay, HEK293 stably expressing hTRPML2-YFP, activated with ML-SA1; format: cell-based; conditions: TRPML2 IC50, Fluo-4, 5 µM ML-SA1, Table S1
T2 construct: expressed in transfected cells
T2 sequence (Q8IZK6 1-566): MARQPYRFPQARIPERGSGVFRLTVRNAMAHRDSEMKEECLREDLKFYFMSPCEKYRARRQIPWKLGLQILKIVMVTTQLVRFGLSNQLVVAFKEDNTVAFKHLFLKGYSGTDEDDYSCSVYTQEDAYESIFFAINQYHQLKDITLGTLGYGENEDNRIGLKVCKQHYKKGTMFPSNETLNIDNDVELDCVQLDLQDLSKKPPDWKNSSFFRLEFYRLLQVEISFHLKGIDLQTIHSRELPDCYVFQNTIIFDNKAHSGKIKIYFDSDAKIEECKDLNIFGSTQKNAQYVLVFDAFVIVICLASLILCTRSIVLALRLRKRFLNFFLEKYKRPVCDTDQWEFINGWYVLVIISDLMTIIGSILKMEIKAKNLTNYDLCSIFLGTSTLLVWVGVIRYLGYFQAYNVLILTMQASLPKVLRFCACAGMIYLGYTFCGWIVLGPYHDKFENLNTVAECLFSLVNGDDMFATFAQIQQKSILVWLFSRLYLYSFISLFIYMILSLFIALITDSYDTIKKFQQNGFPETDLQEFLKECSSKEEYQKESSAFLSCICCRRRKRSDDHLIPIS

[5] = read-out: TRPML1 IC50, Fluo-4, 5 µM ML-SA1, Fig. 2a/4, Table S1
[6] = read-out: TRPML1 IC50, concentration-response retest of screening hits and steroids, Fluo-4, 5 µM ML-SA1, Fig. 1b-e, S1

SMILES	inhibitory effect on TRPML3 [2]	inhibitory effect on TRPML1 [3]	IC50 [4] [µM]	IC50 [2] [µM]	TRPML1:TRPML2 fold selectivity [1] [fold]	TRPML1:TRPML3 fold selectivity [1] [fold]	IC50 [3, 5] [µM]	also measured
CC(=O)O[C@@H]1C=C[C@]2(C)C(C[C@@H](OC(C)=O)[C@]3(C)C4=CC(=O)O[C@H](c5ccoc5)[C@@]4(C)CCC23)C1(C)C (stereo partly drawn) [DGA, deoxygedunol acetate, reference compound]								primary screen result [1]: TRPML1 selective hit
C[C@]12CC[C@@H]3c4ccc(O)cc4CC[C@H]3[C@@H]1CCC2=O [estrone, reference compound]	no effect	no effect						
C[C@]12CC[C@@H]3c4ccc(OC(F)F)cc4CC[C@H]3[C@@H]1CC[C@@H]2O [PRU-4]			5.23	4.78	10.25	9.37	0.5	
C[C@]12CC[C@H]3[C@@H](CCC4=CC(=O)CC[C@@]43C)[C@@H]1CC[C@@H]2O [testosterone, reference compound]		much weaker inhibitory effects						
COc1ccc2c(c1)CC[C@@H]1[C@@H]2CC[C@]2(C)C(=O)CC[C@@H]12 [estrone 3-methyl ether, reference compound]	no effect	no effect						
O=C(O)CCCCCCCCCCCC[C@@H]1C=CCC1 [chaulmoorgic acid, reference compound]								primary screen result [1]: TRPML1 selective hit
C=CCOc1ccc2c(c1)CC[C@@H]1[C@@H]2CC[C@]2(C)[C@@H](O)CC[C@@H]12 [PRU-7]			2.64	15.2	3.62	20.82	0.73	
C[C@]12CCC(=O)C=C1CC[C@@H]1[C@@H]2[C@@H](O)C[C@@]2(C)[C@H]1CC[C@]2(O)C(=O)CO [hydrocortisone, reference compound]	no effect	no effect						
CC(C)CCC[C@@H](C)[C@H]1CC[C@H]2[C@@H]3CC=C4C[C@@H](O)CC[C@]4(C)[C@H]3CC[C@]12C [cholesterol, reference compound]	no effect	no effect						
C[C@]12CC[C@@H]3c4ccc(O)cc4C[C@@H](CCCCCCCCC[S+]([O-])CCCC(F)(F)C(F)(F)F)[C@H]3[C@@H]1CC[C@@H]2O (stereo partly drawn) [fulvestrant, reference compound]	no effect	no effect						
C#C[C@]1(O)CC[C@H]2[C@@H]3CCc4cc(OC)ccc4[C@H]3CC[C@@]21C [mestranol, reference compound]		strongest effect						TRPML1 versus TRPML3 selectivity [1]: stronger inhibitory effects on TRPML1 than on TRPML3; TRPML1-inhibitory activity, SAR summary [3]: considerable activity
CC(=O)[C@H]1CC[C@H]2[C@@H]3CCC4=CC(=O)CC[C@]4(C)[C@H]3CC[C@]12C [progesterone, reference compound]		much weaker inhibitory effects						IC50 [3, 6]: 12 µM
C[C@]12CC[C@@H]3c4ccc(OS(=O)(=O)C(F)(F)F)cc4CC[C@H]3[C@@H]1CC[C@@H]2O [PRU-9]			2.53	5.96	14.88	35.06	0.17	TRPML isoform selectivity profile ([1]; TRPML1, 2, 3 and TPC2, Fluo-4): further improved selectivity profile compared to EDME
C[C@]12CCC3c4ccc(OS(=O)(=O)[O-])cc4CCC3C1CC[C@H]2O.[Na+] (stereo partly drawn) [estradiol-3-sulfate sodium salt, reference compound]								TRPML1-inhibitory activity, SAR summary [3]: eliminated TRPML1-inhibitory activity
CC(C)Oc1ccc2c(c1)CC[C@@H]1[C@@H]2CC[C@]2(C)[C@@H](O)CC[C@@H]12 [PRU-6]			3.57	7.87	8.71	19.2	0.41	
C#C[C@]1(O)CC[C@H]2[C@@H]3CCc4cc(O)ccc4[C@H]3CC[C@@]21C [ethinylestradiol, reference compound]								TRPML1 versus TRPML3 selectivity [1]: stronger inhibitory effects on TRPML1 than on TRPML3; TRPML1-inhibitory activity, SAR summary [3]: only weakly active
C[C@]12CC[C@@H]3c4ccc(-c5ccccc5)cc4CC[C@H]3[C@@H]1CC[C@@H]2O [PRU-11]			2.4	32.1	5.45	72.98	0.44	
C#CC1(O)CC[C@H]2[C@@H]3CCC4=CC(=O)CC[C@@H]4[C@H]3CC[C@@]21CC (mixture of isomers) [norgestrel, reference compound]	no effect	no effect						
C=C1C[C@H]2[C@@H]3C=C(C)C4=CC(=O)CC[C@]4(C)[C@H]3CC[C@]2(C)[C@@]1(OC(C)=O)C(C)=O [MGA, melengestrol acetate, reference compound]								primary screen result [1]: TRPML1 selective hit; TRPML1 versus TRPML3 selectivity [1]: highly TRPML1-selective; IC50 [3, 6]: 19 µM and 18.6 µM
CCOc1ccc2c(c1)CC[C@@H]1[C@@H]2CC[C@]2(C)[C@@H](O)CC[C@@H]12 [PRU-5]			3.38	14.9	4.45	19.58	0.8	
